Data taken from patent US4139526A, “Somatostatin analogs” (Merck & Co., Inc., priority 1977, dated 1979).

Assays:
plasma insulin = assay: Inhibition of insulin: lowering of portal vein plasma insulin in anesthetized rats; assay type: in vivo, rats (male Sprague-Dawley); details: somatostatin = 1; i.v. via external jugular vein, portal vein blood after 5 minutes; limits in parentheses
Description: (§1) The relative potencies of somatostatin analogs on the lowering of plasma insulin and glucagon are determined by the following method:
(§2) Analogs of somatostatin were compared to somatostatin in their ability to lower the levels of portal vein glucagon and insulin in anesthetized rats. Male Sprague-Dawley rats (Charles River CD) weighing 160-200 grams were anesthetized with urethane (150 mg./100 gm.) Saline or peptides were administered via the external jugular vein. After 5 minutes the portal vein was exposed and blood was collected via syringes containing 3 mg. EDTA and placed in chilled tubes containing 100 μl. of Trasylol (obtained from FBA Pharmaceuticals) for subsequent hormone analysis. Plasma levels of glucagon were determined by the method of Faloona, G. R., and Unger, R. H. "Glucagon" in Methods of Hormone Radioimmunoassay, eds. […] Plasma levels of insulin were determined by a modification of the procedure of Herbert, V., Lau, K. S. Gottlieb, C. […]
(§3) Doses were randomized between groups of animals (6 rats/group). Potency values were determined by four, six, or eight point bioassays with somatostatin as the reference standard. Relative potency values were calculated by a relative potency formula for parallel line bioassays as described in Finney, D. J. Statistical Method in Biological Assay (Charles Griffin and Co., Ltd., London) Chap. […]

[1] = tested on: pentagastrin evoked gastric secretion; assay: Pentagastrin evoked gastric secretion in chronic fistula beagle dogs; assay type: in vivo; details: 0.8 γ/kg./min. infused 0-60 min.
Description: The effect of somatostatin and its analogs on gastric secretion were determined by the following method:
Compounds were tested for their ability to inhibit pentagastrin evoked gastric secretion in the chronic fistula dog. Female beagle dogs with a chronic gastric fistula were given pentagastrin (2.5 μg./kg./hour, i.v. from -60 to 120 min.) and gastric outputs were collected via the fistula cannula. Samples were analyzed at 30 minute intervals for volume (ml.) and titratable acid (mEq/L) (titration […] with 0.01N NaOH); total acid output (mEq) was calculated as the product of output volume and acid concentration. Test compounds were infused at a constant rate from 0 to 60 minutes. Data have been expressed as percent change of total acid output relative to a placebo trial in the same animals.

plasma glucagon = assay: Inhibition of glucagon: lowering of portal vein plasma glucagon in anesthetized rats; assay type: in vivo, rats (male Sprague-Dawley); details: somatostatin = 1; i.v. via external jugular vein, portal vein blood after 5 minutes; limits in parentheses
Description: as §1, §2, §3

growth hormone release = assay: Inhibition of pentobarbital stimulated growth hormone release in vivo; parameters: species or system rats; details: somatostatin = 1; subcutaneous injection, blood after 15 minutes; limits in parentheses
Description: Somatostatin analogs were compared to somatostatin in their ability to inhibit the release of growth hormone in pentobarbital stimulated rats; a modification of the procedure of Brazeau et al. Endocrinology, 94, 184-187 (1974) was employed. Rats were lightly etherized and sodium pentobarbital (17 mg./Kg. was injected into the exposed Saphenous vein; somatostatin or analog was simultaneously injected subcutaneously. After 15 minutes the animals were bled via the orbital sinus and blood collected for subsequent growth hormone analysis.
(§4) Doses were randomized between groups of animals (6 rats/group). Potency values were determined by four, six, or eight point bioassays with somatostatin as the reference standard. Relative potency values were calculated by a relative potency formula for parallel line bioassays as described in Finney, D. J. Statistical Method in Biological Assay (Charles Griffin and Co., Ltd., London) Chap. 4 pp. 99-138 (1964).

Rat pituicytes = assay: Growth hormone inhibition in vitro; assay type: cell-based; details: somatostatin = 1, 4 hours incubation, limits in parentheses
Description: Rat pituicytes were isolated according to the procedures of Vale and Grant "In vitro Pituitary Hormone Secretion Assay for Hypophysiotropic Substances" in Methods in Enzymology. Vol. XXXVII, eds. O'Malley, B. W. and Hardman, J. G. (Academic Press, Inc., New York) pp. 5-93 (1975).
After 4 days in culture, the cells were washed and incubated for 4 hours in Dulbecco-modified Eagle's medium in the presence or absence of graded doses of each analog or somatostatin. The medium was then collected for subsequent growth hormone determination by a double antibody radioimmunoassay for rat growth hormone.
as §4

Question: For C[C@H](N)C(=O)NCC(=O)N[C@H]1CSSC[C@@H](C(=O)O)NC(=O)[C@H](CO)NC(=O)[C@H]([C@@H](C)O)NC(=O)[C@H](Cc2ccccc2)NC(=O)[C@H]([C@@H](C)O)NC(=O)[C@H](CCCCN)NC(=O)[C@H](Cc2c[nH]c3ccccc23)NC(=O)[C@H](Cc2ccccc2)NC(=O)[C@H](Cc2ccccc2)NC(=O)[C@H](CC(N)=O)NC(=O)[C@H](CCCCN)NC1=O [(I), Somatostatin], which “Inhibition of Insulin, potency relative to somatostatin” value (plasma insulin) is on record?
Answer: Its value is 1.

Question: And the “Titratable acid, percent change, during 0-30” value ([1]; sample 0-30 min, during treatment)?
Answer: The value was -16%.

Question: And the “Total acid output, percent change, during 0-30” value ([1]; sample 0-30 min, during treatment, relative to placebo trial in the same animals)?
Answer: Its value is -89%.

Question: What about the “Titratable acid, percent change, during 30-60” value ([1]; sample 30-60 min, during treatment) of the same compound?
Answer: The value was -17%.

Question: What about the “Total acid output, percent change, during 30-60” value ([1]; sample 30-60 min, during treatment, relative to placebo trial in the same animals) of the same compound?
Answer: The value was -99%.

Question: And the “Titratable acid, percent change, post-treat 60-90” value ([1]; sample 60-90 min, post-treatment)?
Answer: Its value is -61%.

Question: And the “Total acid output, percent change, post-treat 60-90” value ([1]; sample 60-90 min, post-treatment, relative to placebo trial in the same animals)?
Answer: Its value is -93%.

Question: What about the “Titratable acid, percent change, post-treat 90-120” value ([1]; sample 90-120 min, post-treatment) of the same compound?
Answer: Its value is -41%.

Question: What about the “Total acid output, percent change, post-treat 90-120” value ([1]; sample 90-120 min, post-treatment, relative to placebo trial in the same animals) of the same compound?
Answer: Its value is -45%.

Question: What about the “Inhibition of Glucagon, potency relative to somatostatin” value (plasma glucagon) of the same compound?
Answer: Its value is 1.

Question: What about the “Inhibition of Pentobarbital Stimulated Growth Hormone Release In Vivo, potency relative to somatostatin” value (growth hormone release) of the same compound?
Answer: The value was 1.

Question: What about the “Growth Hormone Inhibition In Vitro, potency relative to somatostatin” value (Rat pituicytes) of the same compound?
Answer: Its value is 1.
